According to US10676438B2, “KCNQ2-5 channel activator” (Ono Pharmaceutical Co., Ltd., priority 2014, dated 2020):
In brackets after ≈: the same amount, converted by molar mass.

What was measured:
[1] = Solubility test (DMSO precipitation method, Pharmacopoeia of Japan elution test second solution); assay type: physicochemical; settings: aqueous buffer, kinetic from dmso stock; Pharmacopoeia of Japan elution test second solution pH=6.8, room temperature, five hours; quantitation range 5 to 100 μM
Method in brief: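 Test compound from 10 mM DMSO stock added to JP elution test second solution (pH 6.8), stirred 5 h at room temperature, then suction-filtered. Filtrate diluted in acetonitrile with internal standard and quantified by LC-MS/MS against a calibration curve (quantitation range 5 to 100 μM).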

hERG channel = hERG channel (Homo sapiens (Human), UniProt Q12809); experiment: Evaluation of action on hERG IKr current (patch-clamp); assay type: cell-based; settings: HEK293 cell overexpressing hERG, maximum tail current, 10 minutes after application; read-out: IC50 (50% inhibitory activity of hERG channel)
Chain of hERG channel (Q12809 whole entry): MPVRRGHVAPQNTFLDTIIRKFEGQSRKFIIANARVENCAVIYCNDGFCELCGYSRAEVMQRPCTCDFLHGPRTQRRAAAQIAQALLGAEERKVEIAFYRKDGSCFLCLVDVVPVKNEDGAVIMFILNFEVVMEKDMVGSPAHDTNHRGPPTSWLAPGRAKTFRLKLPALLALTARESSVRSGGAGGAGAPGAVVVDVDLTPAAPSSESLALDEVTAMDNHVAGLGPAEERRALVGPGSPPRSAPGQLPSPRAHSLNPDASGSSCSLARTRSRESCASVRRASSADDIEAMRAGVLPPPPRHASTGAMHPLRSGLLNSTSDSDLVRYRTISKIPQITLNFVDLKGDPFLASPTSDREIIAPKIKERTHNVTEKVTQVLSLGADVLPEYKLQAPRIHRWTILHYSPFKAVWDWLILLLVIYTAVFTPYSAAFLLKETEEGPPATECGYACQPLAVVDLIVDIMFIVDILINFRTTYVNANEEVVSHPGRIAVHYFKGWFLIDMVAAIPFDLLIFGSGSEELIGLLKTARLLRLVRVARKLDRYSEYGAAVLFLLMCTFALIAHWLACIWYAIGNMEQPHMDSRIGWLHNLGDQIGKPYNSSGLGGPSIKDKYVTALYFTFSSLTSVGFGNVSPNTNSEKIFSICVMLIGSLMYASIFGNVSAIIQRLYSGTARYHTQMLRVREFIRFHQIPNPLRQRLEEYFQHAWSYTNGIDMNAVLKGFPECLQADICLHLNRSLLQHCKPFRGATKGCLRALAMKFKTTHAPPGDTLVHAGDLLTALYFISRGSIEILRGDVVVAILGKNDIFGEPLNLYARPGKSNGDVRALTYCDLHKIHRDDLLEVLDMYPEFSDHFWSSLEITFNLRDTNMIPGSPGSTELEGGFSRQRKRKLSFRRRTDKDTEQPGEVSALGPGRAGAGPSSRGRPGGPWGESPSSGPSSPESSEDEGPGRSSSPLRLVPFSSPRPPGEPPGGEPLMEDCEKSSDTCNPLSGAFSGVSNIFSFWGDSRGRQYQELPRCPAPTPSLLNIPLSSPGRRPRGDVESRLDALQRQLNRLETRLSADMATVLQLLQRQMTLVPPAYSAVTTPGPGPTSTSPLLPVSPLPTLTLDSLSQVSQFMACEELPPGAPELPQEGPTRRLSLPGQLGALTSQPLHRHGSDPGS
Method: Using HEK293 cell overexpressing a human ether-a-go-go-related gene (hERG), the maximum tale current of the hERG IKr current induced by redepolarization pulse subsequent to depolarization pulse was measured by a patch-clamp method.

[2] = system: urinary bladder extracted from rat; experiment: Relaxing action on urinary bladder extracted from rat (rat Magnus test); settings: concentration at which tension change rate is -20%; carbachol 1 μM-induced contraction of rat urinary bladder strips
Method: Female Jcl Wistar rats (CLEA Japan, Inc., body weight in use: 170 to 200 g) were anesthetized by intraperitoneal administration of about 40 mg/kg of pentobarbital (Somnopentyl, Schering Plough Animal Health Corporation), and killed by bloodletting, followed by abdominal incision to extract the urinary bladder. Immediately, the extracted urinary bladder was immersed in ice-cooled Krebs buffer (Krebs Ringer bicarbonate buffer (Sigma-Aldlich Co.) containing sodium hydrogencarbonate (final concentration: 15 mM) and calcium chloride (final concentration: 2.5 mM)) which had been saturated with a mixed gas (95% O2, 5% CO2).
The urinary bladder bodies were cut in the longitudinal direction to prepare strip specimens (about 10×3 mm) on ice. Immediately, the prepared specimens were suspended in a Magnus tube with 500 mg of tension loaded. The tube was filled with Krebs buffer (37° C.) aerated with a mixed gas. Note here that specimens were prepared within 24 hours after extraction of the tissue.
When one hour or more had passed after the specimen was suspended, 2.5M KCl was added so that the final concentration became 100 mM, specimens showing contraction reaction were used.
Carbachol (a contraction-inducing substance) at the concentration of contraction of 1 μM was used to induce contraction. […] After the contraction reaction was stabilized, a physiological salt solution or the compound of the present invention was added in a cumulative manner from low concentration such that the final concentration became 1, 10, 100 nM, 1 and 10 μM.
The tension (mg) of the extracted urinary bladder was employed as an evaluation parameter. The tension was read by using analysis software WAVE THERMO 1000. Tension after addition of the contraction-inducing substance was set to 0%. The change rate of the tension after addition of the compound of the present invention relative to the tension after addition of the contraction-inducing substance was defined as tension change rate (%). The tension change rate (%) was adopted as an evaluation indicator. The tension change rate (%) is calculated from the following formula. Tension change rate (%)={Tension after addition of compound of the present invention and the like (mg)−Tension before addition of contraction-inducing substance (mg)}/{Tension after addition of contraction-inducing substance (mg)−Tension before addition of contraction-inducing substance (mg)}×100−100
The value at which the tension change rate (%) was −20% was calculated as IC20, and the value was adopted as an indicator of the relaxing action of the extracted urinary bladder.

Human KCNQ2/3 channel = Human KCNQ2/3 channel (Homo sapiens (Human), UniProt O43525+O43526); experiment: Opening action with respect to KCNQ2/3 channel by depolarization stimulation (thallium influx, FLIPR); assay type: cell-based; settings: concentration giving 50% of maximum reaction of retigabine (10 μM); human KCNQ2/3 expression CHO-DHFR- cells; 5 mM potassium and 0.5 mM thallium; read-out: KCNQ2/3 ECrtg50
Method in brief: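 CHO-DHFR- cells expressing human KCNQ2/3, loaded with FluxOR thallium dye 60 min at room temperature. Compound added 5 min before depolarisation with 5 mM K+ and 0.5 mM Tl+; fluorescence change over 180 s read on FLIPR. ECrtg50 is the concentration giving 50% of the maximal response to 10 μM retigabine.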

[3] = Evaluation of stability in human liver microsome; assay type: in vitro ADME; settings: human, 15 min, 5 μmol/L, pH 7.4
Method: A test compound (10 mmol/L DMSO solution, 5 μL) was diluted with 50% acetonitrile aqueous solution (195 μL) to prepare 0.25 mmol/L solution.
To a reactor vessel which had been warmed to 37° C. in advance, 0.5 mg/mL of human liver microsome (Xenotech) and 245 μL of 0.1 M phosphate buffer solution (pH 7.4) including NADPH-Co-factor (BD Biosciences) were added, followed by preincubation for five minutes. Then, the above-mentioned test compound solution (5 μL) was added so as to start reaction (final concentration: 5 μmol/L). Immediately after the start, 20 μL was harvested and added to 180 μL of acetonitrile including an internal standard substance (warfarin) to stop the reaction. This solution (20 μL) was stirred with 180 μL of 50% acetonitrile aqueous solution on a plate equipped with a deproteinization filter. Then, the resulting mixture solution was subjected to suction filtration. The filtrate was adopted as a standard sample.
The above-mentioned reaction solution was incubated at 37° C. for 15 minutes, and 20 μL of the solution was added to 180 μL of cooled acetonitrile (including warfarin that is an internal standard substance) to stop the reaction. This solution (20 μL) was stirred with 180 μL of 50% acetonitrile aqueous solution on a plate equipped with a deproteinization filter, and then the resulting mixture solution was subjected to suction filtration. The filtrate was adopted as a reaction sample.
Residual rate (%) was obtained as follows: 1 μL of the sample solution was infused into LC-MS/MS (Discovery Max manufactured by Thermo Scientific), and a quotient obtained by dividing a peak area ratio of the reaction sample (peak area of test compound/peak area of internal standard substance) was divided by the peak area ratio of the standard sample was multiplied by 100.

| Compound | solubility at 5 h [1] [µM] | IC50 (hERG channel) [µM] | IC20 [2] [µM] | EC50 (Human KCNQ2/3 channel) [µM] | Residual rate [3] [%] |
| --- | --- | --- | --- | --- | --- |
| C[C@](O)(c1cc(Cl)c(NC(=O)NCc2ncc(C(F)(F)F)cn2)c(Cl)c1)C(F)(F)F [Example 25 (1), 1-{2,6-dichloro-4-[(2S)-1,1,1-trifluoro-2-hydroxy-2-propanyl]phenyl}-3-{[5-(trifluoromethyl)-2-pyrimidinyl]methyl}urea] | 96 (≈ 45.8 µg/mL) | > 10 | 0.6 | 1.4 | 78 |
| O=C(NCc1cnc(C(F)(F)F)nc1)Nc1c(Cl)cc([C@H](O)C(F)(F)F)cc1Cl [Example 35 (3), 1-{2,6-dichloro-4-[(1S)-2,2,2-trifluoro-1-hydroxyethyl]phenyl}-3-{[2-(trifluoromethyl)-5-pyrimidinyl]methyl}urea] | 87 (≈ 40.3 µg/mL) | > 10 | 0.1 | 0.3 | 100 |
